# Measurements from article PMC11363738 (Journal of Enzyme Inhibition and Medicinal Chemistry, 2024).
# Tests used:
# [1] = molecular target: T1, SARS-CoV-2 3CL^pro (Severe acute respiratory syndrome coronavirus 2, UniProt P0DTD1); assay: SARS-CoV-2 3CLpro FRET activity assay (Beyotime inhibitor screening kit); format: biochemical; details: for IC50: FRET assay, averages of three independent experiments; for inhibition at 1 µM: n = 3, read-out: rate of inhibiting SARS-CoV-2 3CL^pro
# T1 construct: purchased Beyotime, China P0315M
# [2] = system: SARS-CoV-2 Omicron virus BA.5; assay: Antiviral activity in Vero E6 cells, preventive model (viral RNA by qRT-PCR); format: cell-based; details: Severe acute respiratory syndrome coronavirus 2, Vero C1008; read-out: EC50 (concentration for 50% reduction in viral infectivity), preventive model
# [3] = system: SARS-CoV-2 Omicron virus BA.5; assay: microbe, parasite or virus in culture; format: cell-based; details: for EC50: Severe acute respiratory syndrome coronavirus 2, Vero C1008, 96 h, ND = not detectable, inactive at 10 μM, mean ± SD, read-out: EC50, therapeutic model
# [4] = system: SARS-CoV-2; set-up: method as in PMID 34131140; details: read-out: intracellular antiviral activity EC50; cited from earlier work
# [5] = system: rats and mice; details: cited from earlier work
# [6] = system: rats and mice; set-up: method as in PMID 12776572; details: cited from earlier work
# [7] = system: rats and mice; set-up: method as in earlier work; details: cited from earlier work
# [8] = Cytotoxicity against Vero E6 cells, CCK-8 assay (preventive model); details: African green monkey
# [9] = Normal cytotoxicity test in Vero E6 cells, therapeutic model (Celltiter-Glo, CC plate); details: African green monkey, Vero E6 cells (uninfected)
# [10] = in vitro; details: African green monkey
# [11] = in vitro; details: African green monkey; remark: listed apart in the source
structure (smiles),measurement,setting,value
"CCOC(=O)COc1cc(O)c2c(=O)c(O)c(-c3cc(O)c(O)c(O)c3)oc2c1 [Compound 6, Ethyl 2-((3,5-dihydroxy-4-oxo-2–(3,4,5-trihydroxyphenyl)-4H-chromen-7-yl)oxy)acetate]",IC50,[1],950 ± 120 nM
same,inhibition at 1 µM,[1],> 50%
"O=C1c2c(O)cc(O)cc2O[C@H](c2cc(O)c(O)c(O)c2)[C@H]1O [Compound 1, Dihydromyricetin]",EC50,[2],21.2 ± 0.62 µM
same,"inhibitory activity against Omicron virus, therapeutic model",[3],did not have significant inhibitory activity
same,EC50,[4],13.6 µM
same,result in acute oral toxicity tests,[5],negative
same,result in long-term toxicity tests,[6],negative
same,result in genotoxicity tests,[7],negative
same,CC50 at 24 h,[8],> 100 µM
same,CC50 at 4 days,[9],> 100 µM
"O=c1c(O)c(-c2cc(O)c(O)c(O)c2)oc2cc(O)cc(O)c12 [Compound 2, Myricetin]",EC50,[2],12.2 ± 0.23 µM
same,"inhibitory activity against Omicron virus, therapeutic model",[3],did not have significant inhibitory activity
same,CC50 at 24 h,[8],> 100 µM
same,CC50 at 4 days,[9],> 100 µM
"CCOC(=O)CCCOc1cc(O)c2c(=O)c(O)c(-c3cc(O)c(O)c(O)c3)oc2c1 [Compound 7, Ethyl 4-((3,5-dihydroxy-4-oxo-2–(3,4,5-trihydroxyphenyl)-4H-chromen-7-yl)oxy)butano-ate]",IC50,[1],1530 ± 140 nM
CCC(CC)COC(=O)[C@H](C)N[P@](=O)(OC[C@H]1O[C@@](C#N)(c2ccc3c(N)ncnn23)[C@H](O)[C@@H]1O)Oc1ccccc1 [Remdesivir],EC50,[2],0.64 ± 0.12 µM
same,EC50,[3],0.91 ± 0.39 µM
same,CC50 at 24 h,[8],> 100 µM
same,CC50 at 4 days,[9],49.7 ± 0.13 µM
"COC(=O)CCCOc1cc(O)c2c(=O)c(O)c(-c3cc(O)c(O)c(O)c3)oc2c1 [Compound 4, Methyl4-((3,5-dihydroxy-4-oxo-2–(3,4,5-trihydroxyphenyl)-4H-chromen-7-yl)oxy)butano-ate]",IC50,[1],1260 ± 90 nM
"CCOC(=O)CCCCCCOc1cc(O)c2c(=O)c(O)c(-c3cc(O)c(O)c(O)c3)oc2c1 [Compound 9, Ethyl 7-((3,5-dihydroxy-4-oxo-2–(3,4,5-trihydroxyphenyl)-4H-chromen-7-yl)oxy)heptano-ate]",IC50,[1],1680 ± 190 nM
"CCOC(=O)CCCCCCCOc1cc(O)c2c(=O)c(O)c(-c3cc(O)c(O)c(O)c3)oc2c1 [Compound 10, Ethyl 8-((3,5-dihydroxy-4-oxo-2–(3,4,5-trihydroxyphenyl)-4H-chromen-7-yl)oxy)octan-oate]",IC50,[1],2360 ± 130 nM
same,EC50,[2],46.1 ± 4.67 µM
same,EC50,[3],11.5 ± 3.68 µM
"COC(=O)COc1cc(O)c2c(=O)c(O)c(-c3cc(O)c(O)c(O)c3)oc2c1 [Compound 3, Methyl 2-((3,5-dihydroxy-4-oxo-2–(3,4,5-trihydroxyphenyl)-4H-chromen-7yl)oxy)acetate]",IC50,[1],720 ± 40 nM
same,inhibition at 1 µM,[1],> 50%
same,EC50,[2],15.8 ± 0.92 µM
same,CC50,[10],> 100 µM
same,CC50,[11],> 100 µM
"CCOC(=O)CCCCCOc1cc(O)c2c(=O)c(O)c(-c3cc(O)c(O)c(O)c3)oc2c1 [Compound 8, Ethyl 6-((3,5-dihydroxy-4-oxo-2–(3,4,5-trihydroxyphenyl)-4H-chromen-7-yl)oxy)hexane-ate]",IC50,[1],1730 ± 110 nM
"COC(=O)CCCCCOc1cc(O)c2c(=O)c(O)c(-c3cc(O)c(O)c(O)c3)oc2c1 [Compound 5, Methyl 6-((3,5-dihydroxy-4-oxo-2–(3,4,5-trihydroxyphenyl)-4H-chromen-7-yl)oxy) hexano-ate]",IC50,[1],1690 ± 160 nM
same,EC50,[2],37.6 ± 2.05 µM
same,CC50,[10],> 100 µM
same,CC50,[11],> 100 µM
